Reference: the NIST ThermoML archive (doi:10.1021/je049556i)
± gives the expanded uncertainty stated by the source.

Tests used:
[1] = xn = mol fraction of the nth substance listed; conditions: 101 kPa, Liquid
[2] = 101 kPa, Liquid

CCCCO [butan-1-ol] + CC1OC(C)OC(C)O1
[1], x2 = 0
Conditions | mass density [kg/m3] | viscosity [mPa·s]
298.15 K | 805.84 ± 2.4 | 2.618 ± 0.1
303.15 K | 802 ± 2.4 | 2.297 ± 0.089
308.15 K | 798.2 ± 2.4 | 2.032 ± 0.08

CCCO [propan-1-ol]
[2]
Conditions | mass density [kg/m3] | viscosity [mPa·s]
298.15 K | 799.6 ± 2.4 | 1.943 ± 0.076
303.15 K | 794.64 ± 2.4 | 1.725 ± 0.068
308.15 K | 790.53 ± 2.4 | 1.537 ± 0.061

CCO [ethanol] + CC1OC(C)OC(C)O1
[1], x2 = 0
Conditions | mass density [kg/m3] | viscosity [mPa·s]
298.15 K | 785.06 ± 2.3 | 1.083 ± 0.044
303.15 K | 780.74 ± 2.4 | 0.99 ± 0.04
308.15 K | 776.48 ± 2.4 | 0.895 ± 0.037

CC1OC(C)OC(C)O1 (stereo not drawn) [2,4,6-trimethyl-1,3,5-trioxane] + CCCO
[1]
Conditions | mass density, 298.15 K [kg/m3] | mass density, 303.15 K [kg/m3] | mass density, 308.15 K [kg/m3] | viscosity, 298.15 K [mPa·s] | viscosity, 303.15 K [mPa·s] | viscosity, 308.15 K [mPa·s]
x1 = 0.0286 | 809.7 ± 2.4 | 804.77 ± 2.4 | 800.59 ± 2.4 | 1.861 ± 0.072 | 1.653 ± 0.065 | 1.474 ± 0.058
x1 = 0.0484 | 816.43 ± 2.4 | 811.5 ± 2.4 | 807.28 ± 2.4 | 1.807 ± 0.07 | 1.606 ± 0.063 | 1.433 ± 0.056
x1 = 0.0743 | 824.91 ± 2.4 | 820 ± 2.4 | 815.72 ± 2.4 | 1.74 ± 0.067 | 1.548 ± 0.06 | 1.383 ± 0.054
x1 = 0.101 | 833.29 ± 2.4 | 828.4 ± 2.4 | 824.06 ± 2.4 | 1.676 ± 0.064 | 1.492 ± 0.058 | 1.334 ± 0.052
x1 = 0.197 | 860.73 ± 2.3 | 855.87 ± 2.4 | 851.32 ± 2.4 | 1.481 ± 0.056 | 1.322 ± 0.05 | 1.187 ± 0.046
x1 = 0.3124 | 888.86 ± 2.2 | 883.99 ± 2.3 | 879.22 ± 2.4 | 1.312 ± 0.049 | 1.175 ± 0.044 | 1.061 ± 0.04
x1 = 0.4052 | 908.29 ± 2.2 | 903.38 ± 2.2 | 898.44 ± 2.3 | 1.219 ± 0.045 | 1.096 ± 0.041 | 0.994 ± 0.037
x1 = 0.527 | 930.22 ± 2.1 | 925.2 ± 2.2 | 920.07 ± 2.2 | 1.145 ± 0.041 | 1.034 ± 0.037 | 0.942 ± 0.034
x1 = 0.5689 | 936.94 ± 2.1 | 931.88 ± 2.1 | 926.69 ± 2.2 | 1.129 ± 0.04 | 1.021 ± 0.037 | 0.931 ± 0.034
x1 = 0.7214 | 958.42 ± 1.9 | 953.17 ± 2 | 947.75 ± 2.1 | 1.105 ± 0.038 | 1.001 ± 0.035 | 0.915 ± 0.032
x1 = 0.8026 | 968.19 ± 1.9 | 962.8 ± 2 | 957.27 ± 2 | 1.105 ± 0.038 | 1.002 ± 0.035 | 0.915 ± 0.032
x1 = 0.8948 | 978.07 ± 1.8 | 972.51 ± 1.9 | 966.87 ± 1.9 | 1.109 ± 0.037 | 1.005 ± 0.034 | 0.915 ± 0.032
x1 = 1 | 988.35 ± 1.8 | 982.64 ± 1.8 | 976.44 ± 1.9 | 1.107 ± 0.037 | 1.001 ± 0.034 | 0.907 ± 0.031

CC1OC(C)OC(C)O1 (stereo not drawn) [2,4,6-trimethyl-1,3,5-trioxane] + CCCCO
[1]
Conditions | mass density, 298.15 K [kg/m3] | mass density, 303.15 K [kg/m3] | mass density, 308.15 K [kg/m3] | viscosity, 298.15 K [mPa·s] | viscosity, 303.15 K [mPa·s] | viscosity, 308.15 K [mPa·s]
x1 = 0.0289 | 814.71 ± 2.4 | 810.8 ± 2.4 | 806.91 ± 2.4 | 2.46 ± 0.095 | 2.164 ± 0.084 | 1.917 ± 0.075
x1 = 0.0582 | 823.46 ± 2.4 | 819.5 ± 2.4 | 815.51 ± 2.4 | 2.311 ± 0.089 | 2.037 ± 0.078 | 1.809 ± 0.07
x1 = 0.0804 | 829.94 ± 2.4 | 825.93 ± 2.4 | 821.87 ± 2.4 | 2.204 ± 0.084 | 1.948 ± 0.075 | 1.732 ± 0.067
x1 = 0.0999 | 835.53 ± 2.4 | 831.47 ± 2.4 | 827.35 ± 2.4 | 2.116 ± 0.08 | 1.873 ± 0.072 | 1.668 ± 0.064
x1 = 0.194 | 861.02 ± 2.3 | 856.78 ± 2.3 | 852.47 ± 2.4 | 1.756 ± 0.066 | 1.568 ± 0.059 | 1.406 ± 0.053
x1 = 0.3007 | 886.93 ± 2.2 | 882.65 ± 2.3 | 878.35 ± 2.4 | 1.471 ± 0.055 | 1.324 ± 0.049 | 1.197 ± 0.045
x1 = 0.4056 | 909.58 ± 2.2 | 905 ± 2.2 | 900.34 ± 2.3 | 1.302 ± 0.048 | 1.177 ± 0.043 | 1.07 ± 0.04
x1 = 0.5091 | 928.91 ± 2.1 | 924.2 ± 2.2 | 919.2 ± 2.2 | 1.219 ± 0.044 | 1.103 ± 0.04 | 1.006 ± 0.037
x1 = 0.6218 | 946.67 ± 2 | 941.75 ± 2.1 | 936.55 ± 2.1 | 1.193 ± 0.042 | 1.077 ± 0.038 | 0.983 ± 0.035
x1 = 0.6932 | 956.21 ± 2 | 951.23 ± 2 | 945.98 ± 2.1 | 1.193 ± 0.041 | 1.075 ± 0.038 | 0.98 ± 0.035
x1 = 0.8331 | 972.07 ± 1.9 | 966.65 ± 1.9 | 960.87 ± 2 | 1.184 ± 0.04 | 1.064 ± 0.036 | 0.969 ± 0.034
x1 = 0.9165 | 980.1 ± 1.9 | 974.5 ± 1.9 | 968.65 ± 1.9 | 1.143 ± 0.038 | 1.03 ± 0.035 | 0.938 ± 0.032
x1 = 1 | 988.35 ± 1.8 | 982.64 ± 1.8 | 976.44 ± 1.9 | 1.107 ± 0.037 | 1.001 ± 0.034 | 0.907 ± 0.031

CCCCO [butan-1-ol]
[2]
Conditions | mass density [kg/m3] | viscosity [mPa·s]
298.15 K | 805.84 ± 2.4 | 2.618 ± 0.1
303.15 K | 802 ± 2.4 | 2.297 ± 0.089
308.15 K | 798.2 ± 2.4 | 2.032 ± 0.08

CC1OC(C)OC(C)O1 (stereo not drawn) [2,4,6-trimethyl-1,3,5-trioxane]
[2]
Conditions | mass density [kg/m3] | viscosity [mPa·s]
298.15 K | 988.35 ± 1.8 | 1.107 ± 0.037
303.15 K | 982.64 ± 1.8 | 1.001 ± 0.034
308.15 K | 976.44 ± 1.9 | 0.907 ± 0.031

CC1OC(C)OC(C)O1 (stereo not drawn) [2,4,6-trimethyl-1,3,5-trioxane] + CCO
[1]
Conditions | mass density, 298.15 K [kg/m3] | mass density, 303.15 K [kg/m3] | mass density, 308.15 K [kg/m3] | viscosity, 298.15 K [mPa·s] | viscosity, 303.15 K [mPa·s] | viscosity, 308.15 K [mPa·s]
x1 = 0.0372 | 802.48 ± 2.3 | 798.21 ± 2.4 | 793.84 ± 2.4 | 1.071 ± 0.043 | 0.979 ± 0.04 | 0.886 ± 0.036
x1 = 0.0801 | 820.65 ± 2.3 | 816.3 ± 2.4 | 811.97 ± 2.4 | 1.059 ± 0.042 | 0.966 ± 0.039 | 0.876 ± 0.035
x1 = 0.1299 | 839.52 ± 2.3 | 835.19 ± 2.4 | 830.81 ± 2.4 | 1.045 ± 0.041 | 0.952 ± 0.038 | 0.866 ± 0.035
x1 = 0.1885 | 859.12 ± 2.3 | 854.68 ± 2.4 | 850.28 ± 2.4 | 1.031 ± 0.04 | 0.938 ± 0.037 | 0.855 ± 0.034
x1 = 0.2589 | 879.57 ± 2.3 | 875.01 ± 2.3 | 870.45 ± 2.4 | 1.016 ± 0.039 | 0.924 ± 0.036 | 0.844 ± 0.033
x1 = 0.3433 | 900.45 ± 2.2 | 895.77 ± 2.3 | 890.94 ± 2.4 | 1.003 ± 0.038 | 0.912 ± 0.035 | 0.835 ± 0.032
x1 = 0.4485 | 922.04 ± 2.1 | 917.27 ± 2.2 | 912.16 ± 2.3 | 0.994 ± 0.037 | 0.903 ± 0.034 | 0.828 ± 0.031
x1 = 0.5823 | 944.05 ± 2 | 939.04 ± 2.1 | 933.74 ± 2.2 | 0.995 ± 0.036 | 0.904 ± 0.033 | 0.829 ± 0.03
x1 = 0.6816 | 957.34 ± 2 | 952.18 ± 2 | 946.76 ± 2.1 | 1.006 ± 0.035 | 0.915 ± 0.033 | 0.837 ± 0.03
x1 = 0.7582 | 966.15 ± 1.9 | 960.83 ± 2 | 955.25 ± 2 | 1.022 ± 0.036 | 0.929 ± 0.033 | 0.849 ± 0.03
x1 = 0.8003 | 970.54 ± 1.9 | 965.15 ± 2 | 959.44 ± 2 | 1.033 ± 0.036 | 0.939 ± 0.033 | 0.857 ± 0.03
x1 = 0.8452 | 974.98 ± 1.9 | 969.45 ± 1.9 | 963.6 ± 2 | 1.048 ± 0.036 | 0.951 ± 0.033 | 0.868 ± 0.03
x1 = 0.8932 | 979.38 ± 1.9 | 973.8 ± 1.9 | 967.86 ± 1.9 | 1.065 ± 0.036 | 0.967 ± 0.033 | 0.881 ± 0.031
x1 = 0.9446 | 983.9 ± 1.8 | 978.26 ± 1.9 | 972.13 ± 1.9 | 1.088 ± 0.036 | 0.986 ± 0.033 | 0.897 ± 0.031
x1 = 1 | 988.35 ± 1.8 | 982.64 ± 1.8 | 976.44 ± 1.9 | 1.107 ± 0.037 | 1.001 ± 0.034 | 0.907 ± 0.031

CCO [ethanol]
[2]
Conditions | mass density [kg/m3] | viscosity [mPa·s]
298.15 K | 785.06 ± 2.3 | 1.083 ± 0.044
303.15 K | 780.74 ± 2.4 | 0.99 ± 0.04
308.15 K | 776.48 ± 2.4 | 0.895 ± 0.037

CCCO [propan-1-ol] + CC1OC(C)OC(C)O1
[1], x2 = 0
Conditions | mass density [kg/m3] | viscosity [mPa·s]
298.15 K | 799.6 ± 2.4 | 1.943 ± 0.076
303.15 K | 794.64 ± 2.4 | 1.725 ± 0.068
308.15 K | 790.53 ± 2.4 | 1.537 ± 0.061
